Measurements reported in the NIST ThermoML archive (doi:10.1021/acs.jced.6b00655).
Where “and” joins values, the source holds several entries; their conditions need not be identical. Equal entries are not always repeated.

How the values were obtained:
[1] = xn = mol fraction of the nth substance listed; details: 100 kPa, Liquid, Vibrating tube method
[2] = 100 kPa, Liquid, Vibrating tube method

CCCC[N+](C)(C)C.O=S(=O)([N-]S(=O)(=O)C(F)(F)F)C(F)(F)F [butyltrimethylammonium bis(trifluoromethylsulfonyl)imide] + c1ccccc1
[1], 343.15 K
Details | mass density [kg/m3]
x2 = 0 | 1348.32
x2 = 0.096 | 1335.57
x2 = 0.2 | 1316.52
x2 = 0.308 | 1288.49
x2 = 0.414 | 1262.43
x2 = 0.512 | 1229.56
x2 = 0.613 | 1185.89
x2 = 0.762 | 1105.62

CCCC[N+]1(C)CCCC1.O=S(=O)([N-]S(=O)(=O)C(F)(F)F)C(F)(F)F
Details | mass density
[2], 283.15 K | 1410.45 kg/m3 and 1407.6 kg/m3

CCCC[N+](C)(CCCC)CCCC.O=S(=O)([N-]S(=O)(=O)C(F)(F)F)C(F)(F)F [tributylmethylammonium bis((trifluoromethyl)sulfonyl)imide] + Cc1ccccc1
[1], 343.15 K
Details | mass density [kg/m3]
x2 = 0 | 1224.15
x2 = 0.055 | 1218.2
x2 = 0.104 | 1212.25
x2 = 0.199 | 1200.37
x2 = 0.303 | 1184.47
x2 = 0.411 | 1163.41
x2 = 0.586 | 1117.48
x2 = 0.799 | 1036.86
x2 = 0.84 | 1016.08

CCCC[N+](C)(C)C.O=S(=O)([N-]S(=O)(=O)C(F)(F)F)C(F)(F)F [butyltrimethylammonium bis(trifluoromethylsulfonyl)imide]
Details | mass density
[2], 343.15 K | 1348.32 kg/m3 and 1346.21 kg/m3

CCCC[N+]1(C)CCCC1.N#CN=C=[N-] [1-butyl-1-methylpyrrolidinium dicyanamide] + Cc1cccc(C)c1
[1], 283.15 K
Details | mass density [kg/m3]
x2 = 0 | 1022.94
x2 = 0.057 | 1019.68
x2 = 0.112 | 1016.11
x2 = 0.202 | 1009.68
x2 = 0.26 | 1006.3
x2 = 0.318 | 1000.45
x2 = 0.388 | 995.25

CCCC[N+](C)(CCCC)CCCC.O=S(=O)([N-]S(=O)(=O)C(F)(F)F)C(F)(F)F [tributylmethylammonium bis((trifluoromethyl)sulfonyl)imide] + CCc1ccccc1
[1], 343.15 K
Details | mass density [kg/m3]
x2 = 0 | 1224.15
x2 = 0.105 | 1210.81
x2 = 0.203 | 1197.48
x2 = 0.295 | 1179.85
x2 = 0.389 | 1160.38
x2 = 0.461 | 1142.53
x2 = 0.584 | 1105.8
x2 = 0.701 | 1065.88
x2 = 0.732 | 1053.69

CCCC[N+](C)(C)C.O=S(=O)([N-]S(=O)(=O)C(F)(F)F)C(F)(F)F [butyltrimethylammonium bis(trifluoromethylsulfonyl)imide] + Cc1cccc(C)c1
[1], 343.15 K
Details | mass density [kg/m3]
x2 = 0 | 1348.32
x2 = 0.057 | 1340.71
x2 = 0.099 | 1330.46
x2 = 0.2 | 1304.78
x2 = 0.305 | 1274.33
x2 = 0.411 | 1235.86
x2 = 0.45 | 1222.37
x2 = 0.502 | 1201.38

CCCC[N+]1(C)CCCC1.N#CN=C=[N-] [1-butyl-1-methylpyrrolidinium dicyanamide] + CCc1ccccc1
[1], 283.15 K
Details | mass density [kg/m3]
x2 = 0 | 1022.97
x2 = 0.044 | 1020.28
x2 = 0.11 | 1016.49
x2 = 0.2 | 1010.5
x2 = 0.307 | 1002.43
x2 = 0.359 | 997.98
x2 = 0.397 | 994.71

CCCC[N+]1(C)CCCC1.O=S(=O)([O-])C(F)(F)F [1-butyl-1-methylpyrrolidinium trifluoromethanesulfonate] + Cc1ccccc1C
[1], 283.15 K
Details | mass density [kg/m3]
x2 = 0 | 1263.17
x2 = 0.054 | 1252.3
x2 = 0.107 | 1243.62
x2 = 0.19 | 1225.81
x2 = 0.308 | 1197.9
x2 = 0.399 | 1174.56
x2 = 0.451 | 1160.97

CCCC[N+]1(C)CCCC1.N#CN=C=[N-] [1-butyl-1-methylpyrrolidinium dicyanamide] + Cc1ccccc1C
[1], 283.15 K
Details | mass density [kg/m3]
x2 = 0 | 1022.97
x2 = 0.001 | 1022.98
x2 = 0.102 | 1018.02
x2 = 0.202 | 1011.22
x2 = 0.305 | 1005.51
x2 = 0.385 | 999.83
x2 = 0.433 | 997.35

CCCC[N+](C)(C)C.O=S(=O)([N-]S(=O)(=O)C(F)(F)F)C(F)(F)F [butyltrimethylammonium bis(trifluoromethylsulfonyl)imide] + Cc1ccccc1C
[1], 343.15 K
Details | mass density [kg/m3]
x2 = 0 | 1348.32
x2 = 0.046 | 1343.67
x2 = 0.099 | 1331.9
x2 = 0.207 | 1306.39
x2 = 0.309 | 1276.95
x2 = 0.398 | 1246.25
x2 = 0.481 | 1213.91
x2 = 0.542 | 1191.25

CCCC[N+](C)(C)C.O=S(=O)([N-]S(=O)(=O)C(F)(F)F)C(F)(F)F [butyltrimethylammonium bis(trifluoromethylsulfonyl)imide] + CCc1ccccc1
[1], 343.15 K
Details | mass density [kg/m3]
x2 = 0 | 1348.32
x2 = 0.037 | 1345.32
x2 = 0.099 | 1330.93
x2 = 0.245 | 1295.53
x2 = 0.309 | 1271.7
x2 = 0.397 | 1243.17
x2 = 0.448 | 1221.88
x2 = 0.498 | 1201.31

CCCC[N+](C)(C)C.O=S(=O)([N-]S(=O)(=O)C(F)(F)F)C(F)(F)F [butyltrimethylammonium bis(trifluoromethylsulfonyl)imide] + Cc1ccccc1
[1], 343.15 K
Details | mass density [kg/m3]
x2 = 0 | 1346.21
x2 = 0.1 | 1333.19
x2 = 0.202 | 1310.32
x2 = 0.316 | 1279.85
x2 = 0.404 | 1252.66
x2 = 0.502 | 1211.78
x2 = 0.61 | 1167.51
x2 = 0.643 | 1150.47

CCCC[N+]1(C)CCCC1.O=S(=O)([N-]S(=O)(=O)C(F)(F)F)C(F)(F)F + c1ccccc1
[1], 283.15 K
Details | mass density [kg/m3]
x2 = 0 | 1410.45
x2 = 0.106 | 1394.11
x2 = 0.309 | 1355.03
x2 = 0.505 | 1296.91
x2 = 0.714 | 1203.57
x2 = 0.813 | 1133.23

CCCC[N+](C)(CCCC)CCCC.O=S(=O)([N-]S(=O)(=O)C(F)(F)F)C(F)(F)F [tributylmethylammonium bis((trifluoromethyl)sulfonyl)imide] + Cc1cccc(C)c1
[1], 343.15 K
Details | mass density [kg/m3]
x2 = 0 | 1224.18
x2 = 0.148 | 1203.79
x2 = 0.262 | 1185.69
x2 = 0.363 | 1165.61
x2 = 0.498 | 1130.77
x2 = 0.605 | 1095.81
x2 = 0.708 | 1059.94

CCCC[N+]1(C)CCCC1.O=S(=O)([N-]S(=O)(=O)C(F)(F)F)C(F)(F)F + Cc1ccccc1C
[1], 283.15 K
Details | mass density [kg/m3]
x2 = 0 | 1407.6
x2 = 0.21 | 1360.77
x2 = 0.409 | 1303.44
x2 = 0.622 | 1224.4
x2 = 0.673 | 1207.6

CCCC[N+]1(C)CCCC1.O=S(=O)([O-])C(F)(F)F [1-butyl-1-methylpyrrolidinium trifluoromethanesulfonate] + Cc1ccccc1
[1], 283.15 K
Details | mass density [kg/m3]
x2 = 0 | 1263.17
x2 = 0.052 | 1255.13
x2 = 0.102 | 1246.47
x2 = 0.221 | 1223.94
x2 = 0.313 | 1203.6
x2 = 0.4 | 1181.98
x2 = 0.516 | 1147.19
x2 = 0.579 | 1124.97
